Experimental data as given in ChEMBL document CHEMBL1201861, “Genomics of Drug Sensitity in Cancer screening data, Wellcome Trust Sanger Institute”.

Experiments:
Experiment in all cases: cells
OC-314 = format: functional, cell-based; settings: Homo sapiens
Description: SANGER: Inhibition of human OC-314 cell growth in a cell viability assay.

D-423MG = format: functional, cell-based; settings: Homo sapiens
Description: SANGER: Inhibition of human D-423MG cell growth in a cell viability assay.

MOLT-13 = format: functional, cell-based; settings: Homo sapiens;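 further: IC50 for suppression of MOLT-13 cell growth, read out with a cell viability assay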
Description: SANGER: Inhibition of human MOLT-13 cell growth in a cell viability assay.

NCI-H1573 = format: functional, cell-based; settings: Homo sapiens;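 further: growth inhibition of NCI-H1573 cells, read out with a cell viability assay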
Description: SANGER: Inhibition of human NCI-H1573 cell growth in a cell viability assay.

BALL-1 = format: functional, cell-based; settings: Homo sapiens;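 further: growth inhibition of BALL-1 cells, read out with a cell viability assay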
Description: SANGER: Inhibition of human BALL-1 cell growth in a cell viability assay.

ZR-75-30 = format: functional, cell-based; settings: Homo sapiens;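 further: growth inhibition of ZR-75-30 cells, measured with a cell viability readout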
Description: SANGER: Inhibition of human ZR-75-30 cell growth in a cell viability assay.

EPLC-272H = format: functional, cell-based; settings: Homo sapiens
Description: SANGER: Inhibition of human EPLC-272H cell growth in a cell viability assay.

TGBC11TKB = format: functional, cell-based; settings: Homo sapiens;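 further: growth inhibition of human TGBC11TKB cells, measured by a cell viability assay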
Description: SANGER: Inhibition of human TGBC11TKB cell growth in a cell viability assay.

YH-13 = format: functional, cell-based; settings: Homo sapiens;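 further: cell viability readout of growth suppression in the human YH-13 cell line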
Description: SANGER: Inhibition of human YH-13 cell growth in a cell viability assay.

TI-73 = format: functional, cell-based; settings: Homo sapiens;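 further: cell viability assay measuring how much compounds suppress growth of the cultured cell line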
Description: SANGER: Inhibition of human TI-73 cell growth in a cell viability assay.

SW900 = format: functional, cell-based; settings: Homo sapiens;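 further: IC50 is the concentration that inhibits SW900 cell growth, measured by a cell viability assay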
Description: SANGER: Inhibition of human SW900 cell growth in a cell viability assay.

BT-549 = format: functional, cell-based; settings: Homo sapiens
Description: SANGER: Inhibition of human BT-549 cell growth in a cell viability assay.

SW 1116 = format: functional, cell-based; settings: Homo sapiens;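 further: growth inhibition of SW1116 cells, read out with a cell viability assay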
Description: SANGER: Inhibition of human SW1116 cell growth in a cell viability assay.

ECC10 = format: functional, cell-based; settings: Homo sapiens;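 further: growth inhibition of ECC10 cells, read out by a cell viability assay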
Description: SANGER: Inhibition of human ECC10 cell growth in a cell viability assay.

SNU-423 = format: functional, cell-based, Homo sapiens; settings: Homo sapiens, SNU-423
Description: SANGER: Inhibition of human SNU-423 cell growth in a cell viability assay.

HSC-4 = format: functional, cell-based, Homo sapiens; settings: Homo sapiens, HSC-4;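 further: growth inhibition of human HSC-4 cells, read out with a cell viability assay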
Description: SANGER: Inhibition of human HSC-4 cell growth in a cell viability assay.

NCI-H1703 = format: functional, cell-based, Homo sapiens; settings: Homo sapiens, NCI-H1703;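 further: growth inhibition of NCI-H1703 cells, read out via a cell viability assay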
Description: SANGER: Inhibition of human NCI-H1703 cell growth in a cell viability assay.

23132-87 = format: functional, cell-based, Homo sapiens; settings: Homo sapiens
Description: SANGER: Inhibition of human 23132-87 cell growth in a cell viability assay.

MEL-JUSO = format: functional, cell-based, Homo sapiens; settings: Homo sapiens, MEL-JUSO;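 further: growth inhibition of human MEL-JUSO cells, read out with a cell viability assay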
Description: SANGER: Inhibition of human MEL-JUSO cell growth in a cell viability assay.

NCI-H2009 = format: functional, cell-based, Homo sapiens; settings: Homo sapiens, NCI-H2009;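 further: cell viability assay measuring inhibition of NCI-H2009 cell growth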
Description: SANGER: Inhibition of human NCI-H2009 cell growth in a cell viability assay.

SMILES | IC50 (OC-314) [µM] | IC50 (D-423MG) [µM] | IC50 (MOLT-13) [µM] | IC50 (NCI-H1573) [µM] | IC50 (BALL-1) [µM] | IC50 (ZR-75-30) [µM] | IC50 (EPLC-272H) [µM] | IC50 (TGBC11TKB) [µM] | IC50 (YH-13) [µM] | IC50 (TI-73) [µM] | IC50 (SW900) [µM] | IC50 (BT-549) [µM] | IC50 (SW 1116) [µM] | IC50 (ECC10) [µM] | IC50 (SNU-423) [µM] | IC50 (HSC-4) [µM] | IC50 (NCI-H1703) [µM] | IC50 (23132-87) [µM] | IC50 (MEL-JUSO) [µM] | IC50 (NCI-H2009) [µM]
COc1cc(F)c(F)c(Nc2ccc(I)cc2F)c1NS(=O)(=O)C1(CC(O)CO)CC1 (stereo not given) | > 5 | > 5 | > 5 | > 5 | > 5 | > 5 | 0.185 | > 5 | 2.68 | 1.83 | > 5 | > 5 | > 5 | 1.39 | 4.93 |  |  |  |  | 
O=C1N=C(NCc2cccs2)S/C1=C\c1ccc2ncccc2c1 | > 5 | > 5 | > 5 | > 5 | > 5 | > 5 | > 5 | > 5 | 4.76 | > 5 | > 5 | > 5 | > 5 | > 5 | > 5 |  |  |  |  | 
CC(=O)O[C@@]12CO[C@@H]1C[C@H](O)[C@@]1(C)C(=O)[C@H](O)C3=C(C)[C@@H](OC(=O)[C@H](O)[C@@H](NC(=O)OC(C)(C)C)c4ccccc4)C[C@@](O)([C@@H](OC(=O)c4ccccc4)[C@H]21)C3(C)C [DOCETAXEL] | 0.00256 | 0.0013 | > 0.01 | 0.00607 | > 0.01 | > 0.01 | 0.00111 | 0.00469 | 0.000791 | 0.00144 | 0.00755 |  | > 0.01 | 0.0046 | 0.00857 | 0.000239 | 0.00157 | 0.00155 | 0.00639 | 
O=c1cc(-c2cccc3c2Sc2ccccc2S3)oc(N2CCOCC2)c1 [KU-55933] | > 10 | > 10 |  | > 10 | > 10 | > 10 | > 10 | > 10 | > 10 | > 10 | > 10 | > 10 | > 10 |  | > 10 |  | > 10 | > 10 | > 10 | > 10
